Data on one compound can be found in patent US20070087976A1, “Topiramate and pharmaceutical formulations thereof” (priority 2005, published 2007).

Data set [1] in a line: water absorption (sorption isotherm) at 25° C. and 90% r.h. It is filed as physicochemical. How it is done:
Thus, the pure active substance absorbs less than 0.1% of water at 25° C. at 90% r.h., as indicated by the sorption isotherm shown in FIG. 1. […] The topiramate according to the invention is therefore particularly suitable for the preparation of pharmaceutical formulations. The tablet formulations according to the invention which are obtainable by direct compression absorb less moisture than commercially available tablets. […] In contrast, topiramate tablets according to the invention, as in example 1 below, absorb only 5.5% of water under the same conditions.

Data set [2] can be described thus: storage at 80° C. for one month, color changes. It is filed as physicochemical.

For the compound `CC1(C)O[C@@H]2[C@@H](CO[C@@]3(COS(N)(=O)=O)OC(C)(C)O[C@@H]23)O1` [topiramate, 2,3:4,5-bis-O-(1-methylethylidene)-β-D-fructopyranose sulfamate], the water absorbed result in data set [1] is “less than 0.1%”. For the same compound, the “color changes on storage” value in data set [2] is given as “no color changes”.
